Results reported in patent US20200239412A1, “NEW DERIVATES OF DHAA WITH ELECTROSTATIC TUNING” (priority 2017, published 2020).
Several values for one entry are separate records, joined by “and”; a condition that tells them apart may be missing. Identical values can stand only once. Counter-ions that a name gives are not always drawn. Like-named read-outs stand apart in the source and are kept apart here.

Columns and labels:
[1] = biological target: T1, 3R Shaker Kv channel (M356R/A359R) (Drosophila melanogaster, UniProt P08510, A359R/DEL6-46/M356R); test: in vitro; format: cell-based; details: for pKa at 100 μM: Drosophila, functional pH dependence, read-out: Functional pKa (pH where half of the maximum G(V) shift was achieved); for G(V) shift: mean
Excerpt: (§1) Experiments were made with the Shaker H4 channel incapable of fast N-type inactivation due to a Δ6-46 deletion, referred to as the wt Shaker Kv channel. The 3R Shaker Kv channel with two additional positively charged arginines (M356R/A359R) in the extracellular end of S4, was also used.
(§2) For the Shaker channels, Bluescript II KS(+) plasmid was linearized with HindIII and synthesis of cRNA were made with the T7 mMessage mMachine kit (Ambion, Austin, Tex.). Point mutations around S4, on the Shaker Kv channel, were introduced using QuickChange Site-Directed Mutagenesis Kit (Agilent Technologies, Santa Clara, Calif.) and sequencing were used for verification.
(§3) 50 nl cRNA was injected into Xenopus laevis oocytes using a Nanoject injector (Drummond Scientific, Broomall, Pa.) and the oocytes were stored at 8° C. in a modified Barth's solution (MBS) before experiments (16° C., M-channel, 1-2 days). The MBS contained (in mM): 88 NaCl, 1 KCl, 2.4 NaHCO3, 15 HEPES, 0.33 Ca(NO3)2, 0.41 CaCl2), and 0.82 MgSO4, pH was adjusted to 7.5 by NaOH and the MBS was supplemented sodium pyruvate (2.5 mM). All animal experiments were approved by the Linkoping's local Animal Care and Use Committee.
(§4) Currents were measured 1-6 days after cRNA injection using the two-electrode voltage clamp technique (GeneClamp 500B amplifier, Axon instruments). Signals were low pass filtered at 5 kHz and digitized by a Digidata 1440A converter (Molecular Devices, Sunnyvale, Calif.). The amplifiers leak compensation was used and Clampex 10.2 software (Molecular Devices) was used to obtain data and create voltage protocols. The extracellular control solution contained (in mM): 1 KCl, 88 NaCl, 0.8 MgCl2, 0.4 CaCl2) and 15 HEPES. pH were adjusted with NaOH. Electrode pipettes were made from borosilicate glass capillaries (Harvard apparatus, Kent, UK) using a two stage electrode puller (Narishige, Tokyo, Japan) and resistance was between 0.5-2.0 MO once filled with 3 M KCl solution. In the voltage protocol for the wt and 3R Shaker channel, holding potential was set to −80 mV and steady-state currents were measured at voltages between −80 and +50 mV (wt Shaker Kv channel) or +70 mV (3R Shaker Kv channel), using 5 mV increments, 100 ms. […] Physiol. 143, 173-182 (2014). For the M-channel, holding potential was set to −100 mV, test-voltages were measured between −120 and +50 mV (10 mV increments for 2 s) and tail currents were measured at −30 mV.
(§5) Control solution was perfused to the recording chamber (0.5 ml/min) and the test solution was added manually with a syringe, in a volume large enough to replace the control solution manifold. Resin acids compounds were dissolved in DMSO (100 mM) and stored at −20° C. Just prior to experiment the compound was diluted to desired concentration in control solution. Recovery was measured after continuously perfusion of control solution, maximum 5 min. All recordings were made with the perfusion off. Experiments were carried out in room temperature (20-23° C.) and chemicals were purchased from Sigma Aldrich if not stated otherwise.
(§6) Currents were leak subtracted and steady-state currents were measured 80-86 ms after onset of the test voltages (Clampfit 10.5, Molecular Devices). K conductance, GK, was calculated using,
(§7) where IK is the steady-state current, V the absolute membrane voltage and VK the reversal potential for K ions (−80 mV), and the following Boltzmann curve was used to fit the data:
(§8) GK(V)=A/(1+exp((V1/2−V)/s)^n (2)
(§9) where A is the amplitude of the curve, V1/2 the midpoint when n=1, s the slope and n an exponent for better curve fitting, set to n=4. The voltage shift was calculated at 10% of maximal conductance in control curve.
(§10) To quantify the concentration dependence or pH dependence of the GK(V) shifts the following equation was used:
(§11) ΔVG(V)=ΔVMAX/(1+c1/2/c), (3)

[2] = biological target: T1, 3R Shaker Kv channel (M356R/A359R); details: cited from earlier work
R362Q Shaker Kv channel = R362Q Shaker Kv channel (Drosophila melanogaster, UniProt P08510, DEL6-46/R362Q); test: G(V) shift on Shaker Kv channel S4 mutant R362Q compared with wt R362; format: cell-based; details: 100 μM, pH 7.4, FIG. 9D
Description: as §2
Currents were measured 1-6 days after cRNA injection using the two-electrode voltage clamp technique (GeneClamp 500B amplifier, Axon instruments). Signals were low pass filtered at 5 kHz and digitized by a Digidata 1440A converter (Molecular Devices, Sunnyvale, Calif.). The amplifiers leak compensation was used and Clampex 10.2 software (Molecular Devices) was used to obtain data and create voltage protocols. The extracellular control solution contained (in mM): 1 KCl, 88 NaCl, 0.8 MgCl2, 0.4 CaCl2) and 15 HEPES. pH were adjusted with NaOH. […] In the voltage protocol for the wt and 3R Shaker channel, holding potential was set to −80 mV and steady-state currents were measured at voltages between −80 and +50 mV (wt Shaker Kv channel) or +70 mV (3R Shaker Kv channel), using 5 mV increments, 100 ms. […] For the M-channel, holding potential was set to −100 mV, test-voltages were measured between −120 and +50 mV (10 mV increments for 2 s) and tail currents were measured at −30 mV. […]

[3] = biological target: wt Shaker Kv channel (Shaker H4, Δ6-46) (Drosophila melanogaster, UniProt P08510, DEL6-46); test: Two-electrode voltage clamp, G(V) shift on wt Shaker Kv channel expressed in Xenopus laevis oocytes; format: cell-based
Excerpt: as §1, §2, §3, §4, §5, §6, §7, §8, §9, §10, §11

hKv7.2/Kv7.3 (M-channel) = biological target: T2, hKv7.2/Kv7.3 (M-channel) (Homo sapiens, UniProt O43525+O43526); test: Two-electrode voltage clamp, G(V) shift on human M-channel expressed in Xenopus laevis oocytes; format: cell-based
T2 construct: expressed in transfected cells; host or cells: Xenopus laevis oocytes (cRNAs mixed 1:1)
Description: Experiments were also made with the human hKv7.2/Kv7.3, referred to as the M-channel. cRNAs were mixed in a 1:1 molar ratio before injection into oocytes. hKv7.2 [GenBank Acc. No. NM_004518]. hKv7.3 [GenBank Acc. No NM_004519].
as §3, §4, §5
For the M channel tail currents were measured 18 ms after onset and then plotted against the test voltage. The Boltzmann curve (Eq. 2) was used to fit data and the slope was set to shared value between control and test compound. V1/2 was used to calculate the GK(V) shift.
as §10, §11
where ΔVG(v) is the voltage shift, ΔVMAX is the amplitude of the curve, c the concentration, c1/2 the concentration at which half maximum response occur. For compounds with no pH dependence the data was fitted with a horizontal line, with the slope set to 0.

[4] = pH 7.4, concentration-response of G(V) shift, read-out: c1/2 (half-maximal concentration)

Chain of wt Shaker Kv channel (Shaker H4, Δ6-46) (P08510 other isoform, or with tags, fused parts or gaps DEL6-46): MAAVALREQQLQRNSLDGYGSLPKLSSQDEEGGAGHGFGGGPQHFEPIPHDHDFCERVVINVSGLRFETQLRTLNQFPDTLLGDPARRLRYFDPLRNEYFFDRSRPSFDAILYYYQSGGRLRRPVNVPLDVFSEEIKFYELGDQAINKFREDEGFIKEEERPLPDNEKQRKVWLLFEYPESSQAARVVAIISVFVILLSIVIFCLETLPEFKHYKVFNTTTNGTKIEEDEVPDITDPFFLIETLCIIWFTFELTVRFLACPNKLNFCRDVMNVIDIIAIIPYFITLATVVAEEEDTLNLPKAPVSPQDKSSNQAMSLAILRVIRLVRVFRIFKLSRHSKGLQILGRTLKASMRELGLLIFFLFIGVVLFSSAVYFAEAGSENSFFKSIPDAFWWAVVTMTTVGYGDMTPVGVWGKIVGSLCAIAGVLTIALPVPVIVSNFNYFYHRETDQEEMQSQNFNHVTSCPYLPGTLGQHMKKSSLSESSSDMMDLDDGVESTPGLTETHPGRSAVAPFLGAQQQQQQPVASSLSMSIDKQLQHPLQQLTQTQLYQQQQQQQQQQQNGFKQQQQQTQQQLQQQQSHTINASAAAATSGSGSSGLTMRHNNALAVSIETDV
T1 sequence (P08510 other isoform, or with tags, fused parts or gaps DEL6-46/M356R/A359R): as the sequence (P08510 other isoform, or with tags, fused parts or gaps DEL6-46) above, with M315R, A318R counted along it
Chain of R362Q Shaker Kv channel (P08510 other isoform, or with tags, fused parts or gaps DEL6-46/R362Q): as the sequence (P08510 other isoform, or with tags, fused parts or gaps DEL6-46) above, with R321Q counted along it

C[C@@]1(C(=O)O)CCC[C@]2(C)c3cc(Cl)c(Cl)c(Cl)c3CCC12 (some centres unmarked) [Wu50, reference compound]
Increase of affinity compared to DHAA (factor) ([1]; pH 7.4): 2.7 | Increase of amplitude/efficacy compared to DHAA (factor) ([1]; pH 7.4): 1.7 | EC50 ([2]; read-out: c1/2 (half-maximal concentration), pH 7.4, data from Ottosson et al. Sci. Rep. 5, 13278 (2015)): 37 µM and 36 µM

CC(C)c1ccc2c(c1)CC[C@H]1[C@](C)(COS(=O)(=O)O)CCC[C@]21C [Wu161, ((1R,4aS,10aR)-7-isopropyl-1,4a-dimethyl-1,2,3,4,4a,9,10,10a-octahydrophenanthren-1-yl)methyl Hydrogen Sulfate]
EC50 [1, 4]: 36 µM and 37 µM | Effect on R362Q compared with wt R362 (R362Q Shaker Kv channel): about the same effects | EC50 [3, 4]: 44 µM | EC50 (hKv7.2/Kv7.3 (M-channel); concentration-response of G(V) shift, read-out: c1/2 (half-maximal concentration)): 41.8 µM and 42 µM

CC(C)c1ccc2c(c1)CC[C@H]1[C@](C)(C(=O)O)CCC[C@]21C [DHAA, dehydroabietic acid]
pKa at 100 μM [1]: 7.2 | EC50 ([2]; pH 7.4, data from Ottosson et al. Sci. Rep. 5, 13278 (2015), read-out: c1/2 (half-maximal concentration)): 98 µM

CC(C)c1ccc2c(c1)CCC1[C@](C)(CCC(=O)O)CCC[C@]21C (stereo partly drawn) [Wu179, 3-((1S,4aS)-7-isopropyl-1,4a-dimethyl-1,2,3,4,4a,9,10,10a-octahydrophenanthren-1-yl)propanoic Acid]
pKa at 100 μM [1]: 7.5 | G(V) shift ([1]; pH 5.5, 100 μM): 2.80 mV | G(V) shift ([1]; pH 6.5, 100 μM): −3.23 mV | G(V) shift ([1]; pH 7.4, 100 μM): −10.43 mV | G(V) shift ([1]; pH 9, 100 μM): −16.63 mV | G(V) shift ([1]; pH 10, 100 μM): −22.83 mV | G(V) shift ([3]; pH 10, 100 μM, mean): −3.83 mV | G(V) shift (hKv7.2/Kv7.3 (M-channel); pH 7.4, 100 μM, mean): −6.68 mV
